Results reported in ChEMBL document CHEMBL1152089, “Alkyl ether derivatives of the FK-506 related, immunosuppressive macrolide L-683,742 (C31-O-desmethyl ascomycin)” (Bioorg Med Chem Lett, 1994).
pEC50, pIC50: −log10 of the molar value.

Columns and labels:
[1] = target: T1, Peptidyl-prolyl cis-trans isomerase FKBP1A (Homo sapiens, UniProt P62942); test: Ability to bind the major cystolic receptor FK506 binding protein 12 by using competitive binding assay
[2] = species: Mus musculus; test: In vitro immunosuppressive activity against proliferation of antigen stimulated murine splenic T cells; type: functional, organism-based; conditions: T-cell
[3] = target: T1, Peptidyl-prolyl cis-trans isomerase FKBP1A; test: Ability to bind the major cystolic receptor FKBP12 by using competitive binding assay

T1 sequence (P62942 whole entry): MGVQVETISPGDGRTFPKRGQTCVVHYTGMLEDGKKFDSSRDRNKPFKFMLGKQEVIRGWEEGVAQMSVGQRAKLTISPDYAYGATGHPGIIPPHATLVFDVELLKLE

`C=CCO[C@@H]1C[C@H](/C=C(\C)[C@H]2OC(=O)[C@@H]3CCCCN3C(=O)C(=O)C3(O)O[C@H]([C@@H](OC)C[C@@H](C)C/C(C)=C/[C@@H](CC)C(=O)C[C@H](O)[C@H]2C)[C@@H](OC)C[C@@H]3C)CC[C@H]1O` showed a pEC50 [1] of 8.57 and a pIC50 [2] of 9.17.

Work on `C=CCO[C@@H]1CC[C@@H](/C=C(\C)[C@H]2OC(=O)[C@@H]3CCCCN3C(=O)C(=O)C3(O)O[C@H]([C@@H](OC)C[C@@H](C)C/C(C)=C/[C@@H](CC)C(=O)C[C@H](O)[C@H]2C)[C@@H](OC)C[C@@H]3C)C[C@H]1O` yielded a pEC50 [1] of 8.21 and a pIC50 [2] of 8.26.

`C=C(C)CO[C@@H]1C[C@H](/C=C(\C)[C@H]2OC(=O)[C@@H]3CCCCN3C(=O)C(=O)C3(O)O[C@H]([C@@H](OC)C[C@@H](C)C/C(C)=C/[C@@H](CC)C(=O)C[C@H](O)[C@H]2C)[C@@H](OC)C[C@@H]3C)CC[C@H]1O` was tested, and the pIC50 [2] was 8.72.

Work on `C=CC(C)O[C@@H]1CC[C@@H](/C=C(\C)[C@H]2OC(=O)[C@@H]3CCCCN3C(=O)C(=O)C3(O)O[C@H]([C@@H](OC)C[C@@H](C)C/C(C)=C/[C@@H](CC)C(=O)C[C@H](O)[C@H]2C)[C@@H](OC)C[C@@H]3C)C[C@H]1O` (some centres not stated) yielded a pEC50 [1] of 7.83 and a pIC50 [2] of 8.18.

With `CC[C@@H]1/C=C(\C)C[C@H](C)C[C@H](OC)[C@H]2OC(O)(C(=O)C(=O)N3CCCC[C@H]3C(=O)O[C@H](/C(C)=C/[C@@H]3CC[C@@H](OCc4ccco4)[C@H](O)C3)[C@H](C)[C@@H](O)CC1=O)[C@@H](C)C[C@@H]2OC` the pEC50 [1] was 7.81 and the pIC50 [2] was 8.11.

`CC[C@@H]1/C=C(\C)C[C@H](C)C[C@H](OC)[C@H]2O[C@@](O)(C(=O)C(=O)N3CCCC[C@H]3C(=O)O[C@H](/C(C)=C/[C@@H]3CC[C@@H](O)[C@H](O)C3)[C@H](C)[C@@H](O)CC1=O)[C@@H](C)C[C@@H]2OC` was tested, and the pEC50 [1] was 8.30 and the pIC50 [2] was 8.74.

`C=CC(C)O[C@@H]1C[C@H](/C=C(\C)[C@H]2OC(=O)[C@@H]3CCCCN3C(=O)C(=O)C3(O)O[C@H]([C@@H](OC)C[C@@H](C)C/C(C)=C/[C@@H](CC)C(=O)C[C@H](O)[C@H]2C)[C@@H](OC)C[C@@H]3C)CC[C@H]1O` (some centres not stated) gave a pEC50 [1] of 8.18 and a pIC50 [2] of 9.14.

With `CC[C@@H]1/C=C(\C)C[C@H](C)C[C@H](OC)[C@H]2OC(O)(C(=O)C(=O)N3CCCC[C@H]3C(=O)O[C@H](/C(C)=C/[C@@H]3CC[C@@H](OCc4ccsc4)[C@H](O)C3)[C@H](C)[C@@H](O)CC1=O)[C@@H](C)C[C@@H]2OC` the pEC50 [1] was 7.92 and the pIC50 [2] was 8.36.

`C/C=C/CO[C@@H]1C[C@H](/C=C(\C)[C@H]2OC(=O)[C@@H]3CCCCN3C(=O)C(=O)C3(O)O[C@H]([C@@H](OC)C[C@@H](C)C/C(C)=C/[C@@H](CC)C(=O)C[C@H](O)[C@H]2C)[C@@H](OC)C[C@@H]3C)CC[C@H]1O` gave a pEC50 [1] of 8.15 and a pIC50 [2] of 8.68.

In the case of `CC[C@@H]1/C=C(\C)C[C@H](C)C[C@H](OC)[C@H]2OC(O)(C(=O)C(=O)N3CCCC[C@H]3C(=O)O[C@H](/C(C)=C/[C@@H]3CC[C@@H](O)[C@H](OCc4ccco4)C3)[C@H](C)[C@@H](O)CC1=O)[C@@H](C)C[C@@H]2OC`, the pEC50 [1] was 8.34 and the pIC50 [2] was 8.44.

Molecule `C/C=C/CO[C@@H]1CC[C@@H](/C=C(\C)[C@H]2OC(=O)[C@@H]3CCCCN3C(=O)C(=O)C3(O)O[C@H]([C@@H](OC)C[C@@H](C)C/C(C)=C/[C@@H](CC)C(=O)C[C@H](O)[C@H]2C)[C@@H](OC)C[C@@H]3C)C[C@H]1O` has a pEC50 [1] of 8.04 and a pIC50 [2] of 8.07.

`CC[C@@H]1/C=C(\C)C[C@H](C)C[C@H](OC)[C@H]2OC(O)(C(=O)C(=O)N3CCCC[C@H]3C(=O)O[C@H](/C(C)=C/[C@@H]3CC[C@@H](O)[C@H](OC(C)C)C3)[C@H](C)[C@@H](O)CC1=O)[C@@H](C)C[C@@H]2OC` gave a pEC50 [3] of 8.47 and a pIC50 [2] of 9.23.

Work on `C=C(C)CO[C@@H]1CC[C@@H](/C=C(\C)[C@H]2OC(=O)[C@@H]3CCCCN3C(=O)C(=O)C3(O)O[C@H]([C@@H](OC)C[C@@H](C)C/C(C)=C/[C@@H](CC)C(=O)C[C@H](O)[C@H]2C)[C@@H](OC)C[C@@H]3C)C[C@H]1O` yielded a pIC50 [2] of 8.47.

With `CC[C@@H]1/C=C(\C)C[C@H](C)C[C@H](OC)[C@H]2OC(O)(C(=O)C(=O)N3CCCC[C@H]3C(=O)O[C@H](/C(C)=C/[C@@H]3CC[C@@H](O)[C@H](OCc4cccs4)C3)[C@H](C)[C@@H](O)CC1=O)[C@@H](C)C[C@@H]2OC` the pEC50 [1] was 7.99 and the pIC50 [2] was 8.96.

`CC[C@@H]1/C=C(\C)C[C@H](C)C[C@H](OC)[C@H]2OC(O)(C(=O)C(=O)N3CCCC[C@H]3C(=O)O[C@H](/C(C)=C/[C@@H]3CC[C@@H](OC(C)C)[C@H](O)C3)[C@H](C)[C@@H](O)CC1=O)[C@@H](C)C[C@@H]2OC` gave a pIC50 [2] of 8.04.

`CC[C@@H]1/C=C(\C)C[C@H](C)C[C@H](OC)[C@H]2OC(O)(C(=O)C(=O)N3CCCC[C@H]3C(=O)O[C@H](/C(C)=C/[C@@H]3CC[C@@H](O)[C@H](OCc4ccsc4)C3)[C@H](C)[C@@H](O)CC1=O)[C@@H](C)C[C@@H]2OC` showed a pEC50 [1] of 8.24 and a pIC50 [2] of 8.49.

Work on `CC[C@@H]1/C=C(\C)C[C@H](C)C[C@H](OC)[C@H]2OC(O)(C(=O)C(=O)N3CCCC[C@H]3C(=O)O[C@H](/C(C)=C/[C@@H]3CC[C@@H](OCc4cccs4)[C@H](O)C3)[C@H](C)[C@@H](O)CC1=O)[C@@H](C)C[C@@H]2OC` yielded a pEC50 [1] of 7.93 and a pIC50 [2] of 8.55.

Molecule `C=CC[C@@H]1/C=C(\C)C[C@H](C)C[C@H](OC)[C@H]2O[C@@](O)(C(=O)C(=O)N3CCCC[C@H]3C(=O)O[C@H](/C(C)=C/[C@@H]3CC[C@@H](O)[C@H](OC)C3)[C@H](C)[C@@H](O)CC1=O)C(C)C[C@@H]2OC` (single isomer, unassigned) [TACROLIMUS ANHYDROUS] has a pIC50 [2] of 9.54.
